These results are taken from a melting point compilation (Tetko et al.; mined from patent text by program, amines drawn as free bases though some values may be those of a salt).

What is called melting point is the temperature of the solid-liquid transition. As to `Cc1nc(NC(=O)c2cnn3c(C(F)(F)F)cc(-c4ccc(Cl)cc4)nc23)sc1S(=O)(=O)NC(C)(C)CO`, the melting point was 274 °C.

`CCCCCc1ccc(C#Cc2c3ccccc3c3ccc4c(C#Cc5ccc(CCCCC)cc5)c5ccccc5c5ccc2c3c45)cc1`: the melting point was 256 to 257 °C.

In the case of `CN1CC(CO)OC1=C(C#N)C=C1Nc2ccccc2C1=O` (stereo not given), the melting point fell in the range of 236 to 238 °C.

In turn, `Cc1scc2c1C(=O)Nc1ccccc1N2C(=O)Cl` yielded a melting point of 235 to 236 °C.

Take `CNC(=O)NC1CCC(=O)c2ccccc21` (stereo not given): the melting point lay within 220 to 223 °C.

For `COc1ccc(C2CN(S(=O)(=O)c3ccc(C)cc3)Cc3ccccc32)c(CO)c1OC` (stereo not given), the melting point is 162 to 164 °C.

As for `CC(C)c1ccc(C2(OC(=O)N(C)C)C(=O)c3ccccc3C2=O)c(OC(=O)N(C)C)c1`, the melting point is 203 to 205 °C.

As to `O=C(Cn1cc(-c2ccccc2)cc(NC(=O)OCc2ccccc2)c1=O)NC(Cc1ccccc1)C(=O)C(F)(F)F` (stereo not given), the melting point lay in the range of 147 to 151 °C.

Compound `Cc1cccc(C)c1N(Cn1cncn1)C(=O)CCl` displayed a melting point of 115 to 118 °C.

The compound `COc1ccc(CSc2ccc([N+](=O)[O-])cc2CNCCc2ccccc2)cc1` showed a melting point of 80 to 85 °C.

With `Cc1cc(Oc2ccc(S(C)(=O)=O)nc2)cc2cc(C3=NCC(CC(=O)NC[C@@H](C)O)S3)[nH]c12` (stereo not given in full), the melting point lay within 168 to 169 °C.

Take `COc1ccc(-c2ncnc(C(F)(F)F)c2Cl)cc1`: the melting point was in the range of 104 to 106 °C.

As to `Cc1cccc(NC(=O)NCC(=O)N(CC(=O)N2CCC3(CC2)OCCO3)c2ccccc2)c1`, the melting point came out at 130 °C.

The compound `Nc1ccc(Cl)cc1C(=O)NCCCn1ccnc1` showed a melting point of 155 to 157 °C.

In turn, `O=c1cc(C(F)(F)F)c2ccc(NCc3ccccc3)cc2o1` registered a melting point of 136 to 137 °C.

`COC(=O)COc1cccc(C=Cc2nc(-c3ccccc3)c(-c3ccccc3)o2)c1` yielded a melting point of 79 to 82 °C.

For `CCC(NC(=NC#N)Nc1cccnc1)c1cccc(Cl)c1` (stereo not given), the melting point was in the range of 153 to 155 °C.

Take `Fc1ccccc1C1=NCc2n[nH]cc2-c2ccc(Cl)cc21`: the melting point lay in the range of 208 to 210 °C.

Compound `CC(C)S(=O)(=O)c1ccccc1S(N)(=O)=O` yielded a melting point of 150 to 153 °C.

As for `C=C(C)CN1C(=O)CC(=O)N(c2ccccc2)c2cc(Cl)ccc21`, the melting point lay within 149 to 151 °C.

The compound `COc1ccc(OP(Oc2ccc(OC)cc2C(C)(C)C)Oc2ccc(OC)cc2C(C)(C)C)c(C(C)(C)C)c1` yielded a melting point of 82 to 86 °C.

As for `O=S(=O)(c1ccccc1)c1ccc2c(c1)OCCN2CCN1C=CNC1`, the melting point fell in the range of 61.5 to 64.4 °C.

`CCOC(=O)c1ccc(O)c(F)c1` showed a melting point of 79 to 80 °C.

On to `O=C(Nc1ncnc2c1ncn2CC(O)CF)c1ccccc1` (racemic), for which the melting point was 197 °C.

`CCOC(=O)C1(c2ccc(OCc3ccccc3)cc2)CC2=C(C1)C(=O)C(OC)=C(OC)C2=O` showed a melting point of 94 to 97 °C.

In the case of `CCOC(=O)c1cc(=O)c2c(C)c(Cl)c(C)cc2o1`, the melting point lay within 114 to 116 °C.

Regarding `CCCCCC(=O)OCC(CO)CCn1cnc2c(=O)[nH]c(N)nc21` (stereo not given), the melting point lay in the range of 179 to 181 °C.

`COC(=O)Cc1c(NC(C)=O)n(C)c2ccccc12`: the melting point lay in the range of 126 to 128 °C.

In turn, `OCc1cc(OC2CCCC2)c(OC(F)F)cn1` displayed a melting point of 85 to 86 °C.

`C[C@@H](n1ncn(-c2ccc(-n3ccnn3)cc2)c1=O)[C@](O)(Cn1cncn1)c1ccc(F)cc1F` returned a melting point of 219 to 220 °C.

`Cc1nc2cc(NC(=O)c3cc4cc(C(F)(F)F)cnc4n3Cc3cccc(F)c3)ccc2s1` displayed a melting point of 204 to 206 °C.

As to `CNC(=O)c1cncc(NC(=O)N2CCC3(CCc4ccc(F)cc4O3)CC2)c1`, the melting point lay in the range of 231 to 233 °C.

`Cc1noc(C)c1Cn1cc(NC(=O)Cc2ccccc2)cn1` returned a melting point of 106 to 108 °C.

`C=CCc1c(OC)c(=O)[nH]c2cc(Cl)ccc2c1=O` returned a melting point of 135 to 136 °C.

On to `Nc1ccc(S(=O)(=O)N2CCN(c3ccc(F)cc3)CC2)cc1`, for which the melting point fell in the range of 180 to 182 °C.

Compound `COc1cc(COc2nn(Cc3ccc(Oc4ccccc4)cc3)cc2C(=O)O)ccc1OCc1nc(-c2ccco2)oc1C` registered a melting point of 153 to 154 °C.

In turn, `COc1cc2c(cc1OC)CN(CC(O)CN1CCC(c3noc4cc(F)ccc34)CC1)CC2` (stereo not given) showed a melting point of 153 to 154 °C.

As for `O=C(O)c1cc(Cl)cc2ccoc12`, the melting point fell in the range of 212 to 215 °C.

In turn, `CCOC(=O)Cc1cccc(Oc2ccccc2Cl)c1NS(C)(=O)=O` showed a melting point of 145 to 149 °C.

In the case of `CC(=O)c1cc2c(=O)n(NS(C)(=O)=O)c(=O)[nH]c2cc1C(F)(F)F`, the melting point fell in the range of 258 to 265 °C.

For the compound `OCCSc1c(Cl)c(Cl)c(SCCO)c(Cl)c1Cl`, the melting point was in the range of 149 to 152 °C.

`CCc1nc2c(N)nc3cccnc3c2n1CC1(O)CCOC1` (stereo not given) gave a melting point of 234 to 236 °C.

For `COc1ccc(-c2ccc3[nH]c4c(c3c2)CCN(C(=O)c2ccccc2)CC4)cc1`, the melting point fell in the range of 140 to 145 °C.

Consider `COc1ccc(-c2cc3cc(F)c(F)cc3[nH]2)cc1NC(=S)N[C@@H](COC(C)(C)C)C(=O)OC(C)(C)C`, for which the melting point lay within 111 to 114 °C.

Compound `COCc1nc(-c2ccc(Br)c(C)c2)no1` yielded a melting point of 52 to 53.5 °C.

With `O=C=NC1(c2ccccc2)CCC2(CC1)OCCO2`, the melting point lay in the range of 38 to 41 °C.

On to `O=C1c2ccc(Cl)cc2C(=O)N1CCN1CCC(c2noc3cc(F)ccc23)CC1`, for which the melting point was in the range of 170 to 171 °C.

`O=C1C=C(O)CC(c2ccc3sccc3c2)C1` (stereo not given) registered a melting point of 192 °C.

`Cc1ccc(S(=O)(=O)OC2=C(Br)C(=O)c3c(ccc4c3CCC(C)(C)O4)C2=O)cc1` registered a melting point of 109 to 115 °C.

Compound `COCCCCC(=O)c1ccc([N+](=O)[O-])c(Cl)c1` displayed a melting point of 54.5 to 56 °C.

`Nc1nc(-c2ccc(CN3CCCCCC3)s2)n[nH]1` returned a melting point of 160 to 161 °C.

`CN(Cc1ccc(C=CC(=O)O)cc1)S(=O)(=O)c1ccccc1` registered a melting point of 112 °C.

For the compound `Cn1nc(-c2cc(C=O)c(Cl)cc2F)c(Cl)c1C(F)(F)F`, the melting point was 70 to 72 °C.

As to `CC1CC2C3=C(C(O)CC2(C)C1C(=O)CO)C1(C)C=CC(=O)C=C1C(F)C3` (stereo not given), the melting point was 173 °C.

The compound `COC1OCC[C@@H]1NC(=O)[C@H](CC(C)C)NC(=O)OCc1ccccc1` (stereo not given in full) registered a melting point of 112 to 113 °C.

For the compound `NC(=O)N(O)[C@@H]1COc2cc(OCc3ccccc3)ccc21`, the melting point lay within 192 to 193 °C.

Take `NC(=O)Cc1nc2ccnc(-c3cccc(C(F)(F)F)c3)n2n1`: the melting point was in the range of 218 to 220 °C.

The compound `CC1=C(C(=O)Nc2cc(Cl)ccc2Cl)SC2=NCCN21` yielded a melting point of 217 to 219 °C.

Consider `N#CCCOC(=O)C=Cc1ccccc1`, for which the melting point fell in the range of 62 to 65 °C.

As to `CCCCCCCN(CC)C(=O)CCCc1ccc(NS(C)(=O)=O)cc1`, the melting point fell in the range of 54 to 55 °C.

In the case of `CC(C)c1cc2c(-c3nc4cnccc4[nH]3)ccc(OC(F)F)c2o1`, the melting point amounted to 201 °C.

As to `CNC(=O)N1CC(Oc2ccc(Cl)c(Cl)c2)C1`, the melting point fell in the range of 158 to 159 °C.

For `CCCC(=O)Nc1cc(Cl)c(O)c(Cl)c1`, the melting point lay in the range of 146 to 147 °C.

For the compound `CCc1c(C)c(=O)oc2cc(O)ccc12`, the melting point stood at 184 °C.

The compound `Clc1cc(-n2cncn2)ncn1` returned a melting point of 93 to 97 °C.

Consider `N#CCCNC(=O)c1cccc(-c2cccc3nc(Cc4cccc(C(F)(F)F)c4)cn23)c1`, for which the melting point fell in the range of 192 to 193 °C.

In turn, `NC1CCCCC1C(O)c1ccccc1` (stereo not given) yielded a melting point of 77 to 85 °C.

For the compound `COc1ccc(C2CCN(c3c(C)c(C)c4c(c3C)C(O)(c3ccccc3)C(C)(C)O4)CC2)cc1OC` (stereo not given), the melting point lay within 143 to 145 °C.

With `FC(F)(F)c1nnnn1-c1ccc(OCc2ccccc2)c(Br)c1`, the melting point was in the range of 66 to 68 °C.

As to `CC(=O)OCC1OC(n2cc(C3=C(c4cn(C(=O)OC(C)(C)C)c5ccccc45)C(=O)N(C)C3=O)c3cccnc32)C(OC(C)=O)C(OC(C)=O)C1OC(C)=O` (stereo not given), the melting point fell in the range of 89 to 91 °C.

In turn, `Cc1cncn1Cc1ccc(N)cc1` came in with a melting point of 124 to 125 °C.

Compound `COc1cc2c(cc1C(C)(C)c1ccccc1)OCO2` displayed a melting point of 75 to 76 °C.

On to `NC(=O)c1cc2ccccc2cc1N`, for which the melting point lay in the range of 234 to 235 °C.

In turn, `ClCc1cccc2c(-c3ccccc3)nccc12` showed a melting point of 104 °C.

Take `CC(C)(C)c1ccc(C(=O)CCC(=O)O)cc1`: the melting point was in the range of 117 to 120 °C.

Regarding `CC(=O)N(C)c1c(N(C)C)cc(CC(C#N)=CNc2ccccc2)cc1N(C)C`, the melting point lay within 190 to 200 °C.

The compound `CC(=O)c1c(O)cc(C)cc1O` registered a melting point of 146 to 148 °C.

The compound `CC(CO)n1cnc2cnc3ccccc3c21` (stereo not given) registered a melting point of 170 to 174 °C.

Turning to `O=c1[nH]c2ccc(NCCCc3ccccc3)cc2o1`, the melting point was 129 to 130 °C.

The compound `CCCc1nn(Cc2ccc(OCc3nc(-c4ccccc4)oc3C)cc2)cc1CCC(=O)O` gave a melting point of 153 to 154 °C.

In turn, `COc1cc(C#N)ccc1-c1cc(-c2cc(C#N)ccc2OC)on1` came in with a melting point of 271 to 273 °C.

Compound `CC(=O)C(=NNc1ccccc1)C(=O)N(C)C` yielded a melting point of 131 to 133 °C.

For `Nc1ccc(S(=O)(=O)Nc2nnc(CC(=O)O)s2)cc1`, the melting point lay in the range of 209 to 210 °C.

Consider `CC(C)C(C(N)=S)N(C)C(=O)OCc1ccccc1` (stereo not given), for which the melting point is 130 °C.

In turn, `CCOC(=O)CCc1cn(-c2ccccc2)nc1OCc1ccc(OCc2nc(-c3ccco3)oc2C)c(OC)c1` showed a melting point of 97 to 98 °C.

As to `CCOC(=O)c1ccc(N(CC)CCc2ccccc2OCc2ccccc2)cc1`, the melting point is 76 °C.

`CCN(CC)c1c(C(=O)O)n(-c2ccccc2)c2ccc(OC)cc12` had a melting point of 141 to 143 °C.

Compound `CNc1cccc(S(=O)(=O)c2ccc(N)cc2)c1` yielded a melting point of 125 to 126 °C.

`COCCOc1cc2ncnc(NC3=CC(=O)C(N4CCOCC4)=CC3=O)c2cc1OC`: the melting point fell in the range of 239 to 243 °C.

In turn, `O=C1CCCC(=O)N1c1cc(Br)cc(Br)c1` had a melting point of 152 to 154 °C.
